Measurements from patent publication US6369228B2, “Aroyl aminoacyl pyrroles for use in the treatment of neuropathic pain” (Ortho-McNeil Pharmaceutical, Inc., priority 1999, dated 2002).
Where a name gives a salt, the structure may show the parent alone.

Tests used:
[1] = literature pilot study; cited from earlier work
[2] = cited patent; cited from earlier work

For `NCC1(CC(=O)O)CCCCC1` [Gabapentin], the “effect on brush-induced and cold allodynia” value [1] is listed as “significantly effective”, the “effect on detection and pain thresholds to static mechanical and hot stimuli” value [1] is listed as “no effect” and the reducing paroxysmal pain [1] is listed as “particularly effective”. The “relief of ongoing spontaneous pain” value [1] was “moderate and statistically significant relief”.
Molecule `Cn1cc(C(=O)c2ccc(Cl)cc2)cc1C(=O)CN1CCCCC1` [Example 12, 1-[4-(4-Chlorobenzoyl)-1-methyl-1H-pyrrol-2-yl]-2-(1-piperidinyl)-ethanone] has a melting point of 129 to 130 °C.
`Cn1cc(C(=O)c2ccc(Cl)cc2)cc1C(=O)CN1CCOCC1` (as salt: hydrochloride) [13-1, 1-[4-(4-Chlorobenzoyl)-1-methyl-1H-pyrrol-2-yl]-2-(1-morpholino)-ethanone hydrochloride] showed a melting point of 264 to 267 °C.
`Cn1cc(C(=O)c2ccc(Cl)cc2)cc1C(=O)CN1CCCC1` (as salt: hydrochloride) showed a melting point of 265 to 267 °C.
In the case of `Cn1cc(C(=O)CN)cc1C(=O)c1ccc(Cl)cc1` (as salt: hydrochloride), the melting point is reported as 290 °C (dec.).
In the case of `CC1(C)O[C@@H]2[C@@H](CO[C@@]3(COS(N)(=O)=O)OC(C)(C)O[C@@H]23)O1` [topiramate], the “efficacy in an animal model of neuropathic pain” value [2] is given as “evidence of pharmacological activity”.
